Assay: In vitro binding affinity against sigma receptor by using [3H]-DTG ([3H]-6) as radioligand in guinea pig cerebellum.

Row | Compound | IC50
1 | CCCCCCN1CCC2(CCCc3ccccc32)CC1 | 2.9 nM
2 | CCCCN1CCC2(CCCCc3ccccc32)CC1 | 4.8 nM
3 | C=CCN1CCC2(CCCc3ccccc32)CC1 | 18 nM
4 | c1coc(CN2CCC3(CCCc4ccccc43)CC2)c1 | 9.5 nM
5 | COc1ccc(CN2CCC3(CCc4ccccc43)CC2)cc1 | 3.5 nM
6 | c1csc(CN2CCC3(CCCc4ccccc43)CC2)c1 | 6.3 nM
7 | C=CCCN1CCC2(CCCc3ccccc32)CC1 | 6.6 nM
8 | c1ccc(CCN2CCC3(CCCc4ccccc43)CC2)cc1 | 5 nM
9 | c1ccc2c(c1)CCCC21CCN(CC2CC2)CC1 | 10 nM
10 | CCCCN1CCC2(CCc3ccccc32)CC1 | 2 nM
11 | COc1ccc(CN2CCC3(CCCc4ccccc43)CC2)cc1 | 1.7 nM
12 | c1ccc2c(c1)CCCC21CCN(CC2CCCO2)CC1 (stereo not given) | 5.5 nM
13 | Cc1ccc(CN2CCC3(CCc4ccccc43)CC2)cc1 | 5.9 nM
14 | c1ccc(CN2CCC3(CCCCc4ccccc43)CC2)cc1 | 6.8 nM
15 | Cc1ccc2c(c1)CCCC21CCN(Cc2ccccc2)CC1 | 5.5 nM
16 | O=[N+]([O-])c1ccc(CN2CCC3(CCCc4ccccc43)CC2)cc1 | 14 nM
17 | c1ccc(CN2CCC3(CCc4ccccc43)CC2)nc1 | 16 nM
18 | Clc1ccc(CN2CCC3(CCCc4ccccc43)CC2)cc1 | 6.8 nM
19 | c1ccc(CCN2CCC3(CCc4ccccc43)CC2)cc1 | 2.8 nM
20 | Oc1ccc2c(c1)C1(CCC2)CCN(Cc2ccccc2)CC1 | 69 nM

— BindingDB's records for doi:10.1021/jm00089a013 (Merck Sharp and Dohme Research Laboratories, 1992)
